Assay results from patent publication US9226500B2, “Pesticidal compositions and processes related thereto” (Dow AgroSciences LLC, priority 2012, dated 2016).

System: Beet Armyworm (Spodoptera exigua)
Test: Bioassay on Beet Armyworm (BAW), 128-well diet tray assay
Format: in vivo
Conditions: Table 3, Assays Results Part 1
Method: Certain molecules disclosed in this document were tested against BAW, CEW and CL using procedures described in the following examples. In the reporting of the results, the “BAW & CEW & CL Rating Table” was used (See Table Section).
Bioassays on BAW (Spodoptera exigua)
Bioassays on BAW were conducted using a 128-well diet tray assay. One to five second instar BAW larvae were placed in each well (3 mL) of the diet tray that had been previously filled with 1 mL of artificial diet to which 50 μg/cm^2 of the test compound (dissolved in 50 μL of 90:10 acetone-water mixture) had been applied (to each of eight wells) and then allowed to dry. Trays were covered with a clear self-adhesive cover, and held at 25° C., 14:10 light-dark for five to seven days. Percent mortality was recorded for the larvae in each well; activity in the eight wells was then averaged. The results are indicated in the tables entitled “Table 3: Assay Results Part 1” and “Table 4: Assay Results Part 2” (See Table Section).

Structure (SMILES): N#Cc1cc(/C=C/C(c2cc(Cl)c(Cl)c(Cl)c2)C(F)(F)F)ccc1-n1cnc([N+](=O)[O-])n1 (centres unmarked) [DC40, (E)-2-(3-Nitro-1H-1,2,4-triazol-1-yl)-5-(4,4,4-trifluoro-3-(3,4,5-trichlorophenyl)but-1-en-1-yl)benzonitrile]
- BAW Rating: A (50-100)

Structure (SMILES): N#Cc1cc(/C=C/C(c2cc(Cl)cc(C(F)(F)F)c2)C(F)(F)F)ccc1-n1cncn1 (centres unmarked) [DC33]
- BAW Rating: A (50-100)

Structure (SMILES): O=C(Cc1ccc(Cl)nc1)NCc1ccc(/C=C/C(c2cc(Cl)c(Cl)c(Cl)c2)C(F)(F)F)cc1Cl (centres unmarked) [CC14]
- BAW Rating: A (50-100)

Structure (SMILES): N#Cc1cc(/C=C/C(c2cc(Cl)cc(Cl)c2)C(F)(F)F)ccc1-n1cnc(N)n1 (centres unmarked) [DC38]
- BAW Rating: A (50-100)

Structure (SMILES): Cc1cc(/C=C\C(c2cc(Cl)cc(Cl)c2)C(F)(F)F)ccc1C(=O)NCC(=O)NC1CC1 (centres unmarked) [AC93]
- BAW Rating: A (50-100)

Structure (SMILES): CCc1cc(/C=C/C(c2cc(Cl)c(F)c(Cl)c2)C(F)(F)F)ccc1C(=O)NCC(=O)NCC(F)(F)F (centres unmarked) [AC80]
- BAW Rating: A (50-100)

Structure (SMILES): Cc1cc(/C=C/C(c2cc(Cl)c(Cl)c(Cl)c2)C(F)(F)F)ccc1C(=O)NCc1ccc(Cl)nc1 (centres unmarked) [AC22]
- BAW Rating: A (50-100)

Structure (SMILES): O=C(NC1CCN(C2COC2)CC1)c1ccc(/C=C/C(c2cc(Cl)c(Cl)c(Cl)c2)C(F)(F)F)cc1Br (centres unmarked) [AC108]
- BAW Rating: B (More than 0-Less than 50)

Structure (SMILES): O=C(CC(F)(F)F)NCc1ccc(/C=C\C(c2cc(Cl)c(Cl)c(Cl)c2)C(F)(F)F)cc1 (centres unmarked) [CC54, (Z)-3,3,3-Trifluoro-N-(4-(4,4,4-trifluoro-3-(3,4,5-trichlorophenyl)but-1-en-1-yl)benzyl)propanamide]
- BAW Rating: A (50-100)

Structure (SMILES): O=C(NC1CS(=O)(=O)C1)c1ccc(/C=C/C(c2cc(Cl)cc(Cl)c2)C(F)(F)F)cc1F (centres unmarked) [AC83, (E)-4-(3-(3,5-Dichlorophenyl)-4,4,4-trifluorobut-1-en-1-yl)-N-(1,1-dioxidothietan-3-yl)-2-fluorobenzamide]
- BAW Rating: A (50-100)

Structure (SMILES): O=C(NC1CCNCC1)c1ccc(/C=C/C(c2cc(Cl)c(Cl)c(Cl)c2)C(F)(F)F)cc1Br (centres unmarked) [AC114, (E)-2-Bromo-N-(piperidin-4-yl)-4-(4,4,4-trifluoro-3-(3,4,5-trichlorophenyl)but-1-en-1-yl)benzamide]
- BAW Rating: A (50-100)

Structure (SMILES): O=C(CC(F)(F)F)NCc1ccc(/C=C/C(c2ccc(Cl)c(Cl)c2)C(F)(F)F)cc1Cl (centres unmarked) [CC18]
- BAW Rating: A (50-100)

Structure (SMILES): O=C(NCc1ccc(/C=C/C(c2cc(Cl)c(Cl)c(Cl)c2)C(F)(F)F)cc1C(F)(F)F)C1CC1 (centres unmarked) [CC22]
- BAW Rating: A (50-100)

Structure (SMILES): Cc1cc(/C=C/C(c2cc(Cl)c(F)c(Cl)c2)C(F)(F)F)ccc1C(=O)NCc1ccnc(Cl)c1 (centres unmarked) [AC54]
- BAW Rating: A (50-100)

Structure (SMILES): Cc1cc(/C=C/C(c2cc(Cl)cc(Cl)c2)C(F)(F)F)ccc1C(=O)NCc1ccc(Cl)cc1 (centres unmarked) [AC48]
- BAW Rating: A (50-100)

Structure (SMILES): O=C(CC(F)(F)F)NCc1ccc(/C=C/C(c2cc(Cl)cc(Cl)c2)C(F)(F)F)cc1Cl (centres unmarked) [CC9]
- BAW Rating: A (50-100)

Structure (SMILES): FC(F)(F)C(/C=C/c1ccc(-n2cncn2)cc1)c1ccc(Cl)cc1 (centres unmarked) [DC4]
- BAW Rating: A (50-100)

Structure (SMILES): O=C(Cn1ncc2cc(/C=C/C(c3cc(Cl)c(F)c(Cl)c3)C(F)(F)F)ccc2c1=O)NCC(F)(F)F (centres unmarked) [BC14, (E)-2-(6-(3-(3,5-Dichloro-4-fluorophenyl)-4,4,4-trifluorobut-1-en-1-yl)-1-oxophthalazin-2(1H)-yl)-N-(2,2,2-trifluoroethyl)acetamide]
- BAW Rating: A (50-100)

Structure (SMILES): O=C(CC(F)(F)F)NNc1ccc(/C=C/C(c2cc(Cl)c(Cl)c(Cl)c2)C(F)(F)F)cc1 (centres unmarked) [CC51]
- BAW Rating: A (50-100)

Structure (SMILES): COc1c(Cl)cc(C(/C=C/c2ccc(-n3cncn3)cc2)C(F)(F)F)cc1Cl (centres unmarked) [DC20]
- BAW Rating: A (50-100)

Structure (SMILES): CCc1cc(/C=C/C(c2cc(Cl)c(F)c(Cl)c2)C(F)(F)F)ccc1C(=O)NCc1ccc(Cl)nc1 (centres unmarked) [AC72]
- BAW Rating: A (50-100)

Structure (SMILES): O=C(CNC(=O)c1ccc(/C=C/C(c2cc(Cl)c(F)c(Cl)c2)C(F)(F)F)cc1Br)NCC(F)(F)F (centres unmarked) [AC79, (E)-2-Bromo-4-(3-(3,5-dichloro-4-fluorophenyl)-4,4,4-trifluorobut-1-en-1-yl)-N-(2-oxo-2-((2,2,2-trifluoroethyl)amino)ethyl)benzamide]
- BAW Rating: A (50-100)

Structure (SMILES): CC(=O)Nc1ncn(-c2ccc(/C=C/C(c3cc(Cl)cc(Cl)c3)C(F)(F)F)cc2C#N)n1 (centres unmarked) [DC39]
- BAW Rating: A (50-100)

Structure (SMILES): Cc1cc(/C=C/C(c2cc(Cl)cc(Cl)c2)C(F)(F)F)ccc1C(=O)NCC(=O)NC1CC1 (centres unmarked) [AC40]
- BAW Rating: A (50-100)

Structure (SMILES): O=C(CNC(=O)c1ccc(/C=C/C(c2cc(Cl)c(F)c(Cl)c2)C(F)(F)F)cc1[N+](=O)[O-])NCC(F)(F)F (centres unmarked) [AC98]
- BAW Rating: A (50-100)

Structure (SMILES): Cc1cc(/C=C/C(c2cc(Cl)cc(Cl)c2)C(F)(F)F)ccc1C(=O)NCc1ccccc1 (centres unmarked) [AC11]
- BAW Rating: A (50-100)

Structure (SMILES): Cc1cc(/C=C/C(c2cc(Cl)cc(Cl)c2)C(F)(F)F)ccc1C(=O)NCc1nnc(C2CC2)o1 (centres unmarked) [AC89, (E)-N-((5-Cyclopropyl-1,3,4-oxadiazol-2-yl)methyl)-4-(3-(3,5-dichlorophenyl)-4,4,4-trifluorobut-1-en-1-yl)-2-methylbenzamide]
- BAW Rating: A (50-100)

Structure (SMILES): O=C(CC(F)(F)F)NCc1ncc(/C=C/C(c2cc(Cl)c(Cl)c(Cl)c2)C(F)(F)F)cc1Cl (centres unmarked) [CC44, (E)-N-((3-Chloro-5-(4,4,4-trifluoro-3-(3,4,5-trichlorophenyl)-but-1-en-1-yl)pyridin-2-yl)methyl)-3,3,3-trifluoropropanamide]
- BAW Rating: A (50-100)

Structure (SMILES): O=C(CC(F)(F)F)NCC(=O)n1ccc2cc(/C=C/C(c3cc(Cl)c(F)c(Cl)c3)C(F)(F)F)ccc21 (centres unmarked) [BC13, (E)-N-(2-(5-(3-(3,5-Dichloro-4-fluorophenyl)-4,4,4-trifluorobut-1-en-1-yl)-1H-indol-1-yl)-2-oxoethyl)-3,3,3-trifluoropropanamide]
- BAW Rating: A (50-100)

Structure (SMILES): O=C(NNc1ccc(/C=C/C(c2cc(Cl)c(Cl)c(Cl)c2)C(F)(F)F)cc1)C1CC1 (centres unmarked) [CC50, (E)-N′-(4-(4,4,4-Trifluoro-3-(3,4,5-trichlorophenyl)but-1-en-1-yl)phenyl)cyclopropanecarbohydrazide]
- BAW Rating: A (50-100)

Structure (SMILES): CNc1cc(/C=C/C(c2cc(Cl)cc(Cl)c2)C(F)(F)F)ccc1-n1cncn1 (centres unmarked) [DC57, (E)-5-(3-(3,5-Dichlorophenyl)-4,4,4-trifluorobut-1-en-1-yl)-N-methyl-2-(1H-1,2,4-triazol-1-yl)aniline]
- BAW Rating: A (50-100)

Structure (SMILES): O=C(NCc1ccc(/C=C/C(c2cc(Cl)cc(Cl)c2)C(F)(F)F)cc1C(F)(F)F)C1CC1 (centres unmarked) [CC21]
- BAW Rating: A (50-100)

Structure (SMILES): CONC(=O)CNC(=O)c1ccc(/C=C/C(c2cc(Cl)c(Cl)c(Cl)c2)C(F)(F)F)cc1Br (centres unmarked) [AC110]
- BAW Rating: A (50-100)

Structure (SMILES): O=C(NCc1ccc(/C=C/C(c2cc(Cl)c(Cl)c(Cl)c2)C(F)(F)F)cc1F)C1CC1 (centres unmarked) [CC28]
- BAW Rating: A (50-100)

Structure (SMILES): COc1c(Cl)cc(C(/C=C/c2ccc(-n3cncn3)c(C#N)c2)C(F)(F)F)cc1Cl (centres unmarked) [DC34]
- BAW Rating: A (50-100)

Structure (SMILES): FC(F)(F)C(/C=C/c1ccc(-n2cncn2)c(Cl)c1)c1cc(Cl)cc(Cl)c1 (centres unmarked) [DC50]
- BAW Rating: A (50-100)

Structure (SMILES): O=C(CNC(=O)c1ccc(/C=C/C(c2cc(Cl)c(F)c(Cl)c2)C(F)(F)F)cc1F)NCC(F)(F)F (centres unmarked) [AC68]
- BAW Rating: A (50-100)

Structure (SMILES): CCNC(=S)NCc1ccc(/C=C/C(c2cc(Cl)c(Cl)c(Cl)c2)C(F)(F)F)cc1Cl (centres unmarked) [CC37, (E)-1-(2-Chloro-4-(4,4,4-trifluoro-3-(3,4,5-trichlorophenyl)but-1-en-1-yl)benzyl)-3-ethylthiourea]
- BAW Rating: A (50-100)
